Results published in patent US20250340569A1, “INHIBITORS OF KIF18A AND USES THEREOF” (Insilico Medicine IP Limited, priority 2023, published 2025).

How the values were obtained:
OVCAR-3 = experiment: OVCAR3 CTG assay; type: cell-based; conditions: Homo sapiens, OVCAR-3, 144 h; CellTiter-Glo, 6 days incubation
Source text: Example B2: OVCAR3 CTG Assay
• a) Preparation of complete medium: Added FBS and appropriate additives according to the information sheet provided by the vendor. Mix gently. • b) Checked the cell name and complete medium and passage number marked on the flask. For adherent cell lines, refer to c to k. For suspension cell lines, refer to g to k. • c) Removed and discarded culture medium using a vacuum pump. • d) Briefly rinsed the cell layer with 0.25% (w/v) Trypsin-0.038% (w/v) EDTA solution to remove all traces of serum that contains trypsin inhibitor. • e) Added 3.0 ml of Trypsin-EDTA solution to flask and observed cells under an inverted microscope until cell layer is dispersed. • f) Added 9.0 ml of complete growth medium and aspirated cells by gently pipetting. • g) Transfered the cell suspension to a centrifuge tube and centrifuged at 1000 rpm for 4 minutes. • h) Discarded the supernatant using a vacuum pump. • i) Added appropriate volume of complete medium. Suspended the cell pellet by gently pipetting. • j) Counted the cell numbers with Vi-cell XR and adjusted cells to appropriate density. • k) Added 190 μL of cell suspension to 96-well opaque-walled clear bottom plates according to the planned plate layout and placed the plates in the CO2 incubator overnight.
2) Compound Stock Preparation:
• a) Plate preparation of testing articles:
The compounds were dissolved in DMSO to prepare 10 mM stock solution. The start working concentration (2 mM) was prepared with DMSO.
b) Staurosporine Plate Preparation:
0.4 mM Staurosporine was prepared in DMSO at working concentration.
The 20× compound containing medium was prepared according to the plate map. 10 μL of 20× compound containing medium was added into each well of the assay plates. Centrifuged at 1000 rpm for 1 minute. The total dilution was 200-fold.
3) Cells were Incubated with the Compounds for 6 Days at 5% CO2, 37° C.
Assay Measurement for CTG Assay
1) Preparation of Reagents
• a) Thawed the CellTiter-Glo buffer and equilibrated to room temperature prior to use. • b) Equilibrated the lyophilized CellTiter-Glo substrate to room temperature prior to use. • c) Transfered the appropriate volume of CellTiter-Glo buffer into the amber bottle containing CellTiter-Glo substrate to reconstitute the lyophilized enzyme/substrate mixture. This formed the CellTiter-Glo reagent. • d) Mixed by gently vortexing, swirling or by inverting the contents to obtain a homogeneous solution. The CellTiter-Glo substrate went into solution easily in less than one minute.
• a) Observed the cell morphology under an inverted microscope after corresponding treatment. • b) Equilibrated the plate and its contents to room temperature for approximately 30 minutes. • c) Added 100 μL of CellTiter-Glo reagent to the assay plate by Multidrop Combi instrument. • d) Mixed contents for 10 minutes on an orbital shaker to induce cell lysis. • e) Allowed the plate to incubate at room temperature for 10 minutes to stabilize luminescent signal. • f) Pasted the clear bottom with white back seal and record luminescence with Envision. The settings should be: Luminescence, measurement time 0.1 s.

Kif18A = molecular target: T1, Kif18A (Homo sapiens, UniProt Q8NI77); experiment: KIF18A assay (ADP Glo); conditions: biochemical assay, ADP Glo luminescence
T1 sequence (Q8NI77 1-898): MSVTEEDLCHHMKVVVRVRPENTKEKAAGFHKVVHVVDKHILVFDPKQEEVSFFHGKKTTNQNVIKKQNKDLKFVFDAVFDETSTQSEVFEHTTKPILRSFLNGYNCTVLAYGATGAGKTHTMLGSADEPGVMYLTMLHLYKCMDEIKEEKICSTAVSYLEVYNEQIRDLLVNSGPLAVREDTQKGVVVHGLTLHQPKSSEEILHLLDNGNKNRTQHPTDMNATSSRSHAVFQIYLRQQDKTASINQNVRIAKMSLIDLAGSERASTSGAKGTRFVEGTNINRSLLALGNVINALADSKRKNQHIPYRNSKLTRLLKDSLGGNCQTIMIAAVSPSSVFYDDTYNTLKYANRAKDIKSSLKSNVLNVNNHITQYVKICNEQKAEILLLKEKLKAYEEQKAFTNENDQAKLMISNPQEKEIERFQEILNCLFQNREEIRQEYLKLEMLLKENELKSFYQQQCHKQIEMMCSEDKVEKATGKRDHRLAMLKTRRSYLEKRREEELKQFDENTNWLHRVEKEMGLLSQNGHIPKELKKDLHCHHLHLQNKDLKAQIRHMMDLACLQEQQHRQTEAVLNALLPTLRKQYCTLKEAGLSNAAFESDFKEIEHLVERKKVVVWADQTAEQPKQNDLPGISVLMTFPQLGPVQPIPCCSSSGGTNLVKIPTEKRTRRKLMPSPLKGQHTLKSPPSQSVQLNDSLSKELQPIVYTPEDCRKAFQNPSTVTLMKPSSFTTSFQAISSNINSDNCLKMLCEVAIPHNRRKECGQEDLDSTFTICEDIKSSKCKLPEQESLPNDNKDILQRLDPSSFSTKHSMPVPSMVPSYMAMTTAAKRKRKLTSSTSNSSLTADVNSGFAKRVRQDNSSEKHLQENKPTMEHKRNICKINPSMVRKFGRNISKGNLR
Method: The KIF18A assay was performed as follows:
1.1. Prepared 1× Kinase Buffer
• a) Added 40 μL test compound to 384-well dilution plate • b) Diluted compound 1:3 in succession in DMSO for each column for 10 pts • c) Transferred 0.1 μL diluted compound solution to 384 assay plate using Echo, each column containing 2 replicates • d) Added 5 μL enzyme working solution to 384-well assay plate, centrifuge 1000 RPM for 1 min e) Incubated at 25° C. for 15 min • f) Added 5 μL ATP working solution to initiate reaction • g) Incubated at 25° C. for 60 min • h) Added 10 μL ADP Glo reagent, centrifuge 1000 RPM for 1 min • i) Incubated at 25° C. for 60 min • j) Added 20 μL kinase detection reagent, centrifuge 1000 RPM for 1 min • k) Incubated at 25° C. for 60 min • l) Read Luminescence Signal on Envision 2104 plate reader.
1.3. Data Analysis—Calculated IC50 and Plot Dose-Response Curve of Compounds:
Calculated IC50 by fitting % Inhibition values and log of compound concentrations to nonlinear regression (dose response−variable slope) with GraphPad 6.0.
[formula] • X: log of inhibitor concentration; Y: % Inhibition

| SMILES | IC50 (OVCAR-3) [µM] | IC50 (Kif18A) [µM] |
| --- | --- | --- |
| Cc1cc2nc(n1)NCCOCCC1(C)CCN(CC1)c1cc(NS(=O)(=O)CCO)ccc1C(=O)N2 [EX23] | 0.01 to 0.1 | 0.01 to 0.1 |
| Cc1cc2nc(n1)N(C)C[C@H](C)COCC1(C)CCN(CC1)c1cc(NS(=O)(=O)CCO)ccc1C(=O)N2 [EX33-A] | 0.1 to 1 | 0.01 to 0.1 |
| Cc1cc2nc(n1)NCC(C)COCC1(C(F)(F)F)CCN(CC1)c1nc(NC(C)(C)CO)ccc1C(=O)N2 (stereo not drawn) [EX55] | 0.01 to 0.1 | 0.01 to 0.1 |
| Cc1cc2nc(n1)OCCOCC1(C)CCN(CC1)c1cc(NS(=O)(=O)CCO)ccc1C(=O)N2 [EX03] | 0.1 to 1 | 0.01 to 0.1 |
| Cc1cc2nc(n1)N1CCC(F)(F)[C@@H](CCCC3(C)CCN(CC3)c3cc(NS(=O)(=O)CCO)ccc3C(=O)N2)C1 [EX115-B] | 0.01 to 0.1 | 0.01 to 0.1 |
| Cc1cc2nc(n1)N(C)C[C@@H](C)COCC1(C)CCN(CC1)c1cc(NS(=O)(=O)CCO)ccc1C(=O)N2 [EX33-B] | 1 to 10 | 0.01 to 0.1 |
| Cc1cc2nc(n1)NCCCCOC1(C)CCN(CC1)c1cc(NS(=O)(=O)CCO)ccc1C(=O)N2 [EX18] | 0.1 to 1 | 0.01 to 0.1 |
| Cc1cc2nc(n1)NCCCOCC1(C)CCN(CC1)c1cc(S(N)(=O)=O)ccc1C(=O)N2 [EX25-A] | 0.01 to 0.1 | 0.01 to 0.1 |
| Cc1cc2nc(n1)NCCCCOCC1(C(F)(F)F)CCN(CC1)c1cc(NS(=O)(=O)CCO)ccc1C(=O)N2 [EX59] | 0.01 to 0.1 | 0.01 to 0.1 |
| C[C@H]1CNc2cccc(n2)NC(=O)c2ccc(NS(=O)(=O)CCO)cc2N2CCC(C(F)(F)F)(CC2)COC1 [EX56-A] | 0.01 to 0.1 | < 0.01 |
| Cc1cc2nc(n1)NCCCOCC1(C)CCN(CC1)c1cc(NS(=O)(=O)CCO)ccc1C(=O)N2 [EX12] | 0.01 to 0.1 | 0.01 to 0.1 |
| Cc1cc2nc(n1)N(C)CC(C)COCC1(C(F)(F)F)CCN(CC1)c1cc(NS(=O)(=O)CCO)ccc1C(=O)N2 (stereo not drawn) [EX35] | 0.1 to 1 | 0.01 to 0.1 |
| Cc1cc2nc(n1)NCCC(C)OCC1(C)CCN(CC1)c1cc(NS(=O)(=O)CCO)ccc1C(=O)N2 (stereo not drawn) [EX38] | 0.01 to 0.1 | 0.01 to 0.1 |
| Cc1cc2nc(n1)NCC(O)COCC1(C)CCN(CC1)c1cc(NS(=O)(=O)CCO)ccc1C(=O)N2 (stereo not drawn) [EX40] | – | 0.01 to 0.1 |
| CN1CCOCC2(C)CCN(CC2)c2cc(NS(=O)(=O)CCO)ccc2C(=O)Nc2cccc(n2)C1=O [EX21] | 0.1 to 1 | 0.1 to 1 |
| CC12CCN(CC1)c1cc(NS(=O)(=O)CCO)ccc1C(=O)Nc1cc(C(F)(F)F)nc(n1)NCCCOC2 [EX39] | 0.01 to 0.1 | – |
| C[C@H]1CCCC2(C(F)(F)F)CCN(CC2)c2cc(NS(=O)(=O)CCO)ccc2C(=O)Nc2cccc(n2)NC1 [EX79-B] | < 0.01 | – |
| [2H]C([2H])([2H])N1CCCCC2(C(F)(F)F)CCN(CC2)c2cc(NS(=O)(=O)CCO)ccc2C(=O)Nc2cccc1n2 [EX63] | 0.1 to 1 | – |
| CN1CCCOCC2(C(F)F)CCN(CC2)c2cc(NS(=O)(=O)CCO)ccc2C(=O)Nc2ccnc1n2 [EX95] | 0.01 to 0.1 | – |
| Cc1cc2nc(n1)N1CCO[C@@H](COCC3(C(F)F)CCN(CC3)c3cc(NS(=O)(=O)CCO)ccc3C(=O)N2)C1 [EX113-B] | 0.01 to 0.1 | – |

| SMILES | IC50 (OVCAR-3) [µM] | IC50 (Kif18A) [µM] |
| --- | --- | --- |
| Cc1cc2nc(n1)N1CCO[C@H](COCC3(C(F)(F)F)CCN(CC3)c3cc(NS(=O)(=O)CCO)ccc3C(=O)N2)C1 [EX96-A] | < 0.01 | – |
| CN1CCC/C=C/C2(C(F)(F)F)CCN(CC2)c2cc(NS(=O)(=O)CCO)ccc2C(=O)Nc2ccnc1n2 [EX91] | 0.01 to 0.1 | – |
| CN1CCCCCC2(C(F)(F)F)CCN(CC2)c2cc(NS(=O)(=O)CCO)ccc2C(=O)Nc2ccnc1n2 [EX90] | 0.01 to 0.1 | – |
| CO[C@H]1CNc2cccc(n2)NC(=O)c2ccc(NS(=O)(=O)CCO)cc2N2CCC(C(F)(F)F)(CC2)COC1 [EX78-B] | < 0.01 | – |
| Cc1cc2nc(n1)NCC1(CC1)COCC1(C(F)(F)F)CCN(CC1)c1cc(NS(=O)(=O)CCO)ccc1C(=O)N2 [EX43] | < 0.01 | – |
| [2H]C([2H])([2H])N1CCCCOCC2(C(F)(F)F)CCN(CC2)c2cc(NS(=O)(=O)CCO)ccc2C(=O)Nc2cc(C)nc1n2 [EX47] | 1 to 10 | – |
| CN1CCCOCC2(C(F)(F)F)CCN(CC2)c2cc(NS(=O)(=O)CCO)cnc2C(=O)Nc2cccc1n2 [EX86] | 0.01 to 0.1 | – |
| O=C1Nc2cccc(n2)NCC2(CC2)COCC2(C(F)(F)F)CCN(CC2)c2cc(NS(=O)(=O)CCO)ccc21 [EX68] | 0.01 to 0.1 | – |
| C[C@@H]1C/C=C/C2(C(F)(F)F)CCN(CC2)c2cc(NS(=O)(=O)CCO)ccc2C(=O)Nc2cccc(n2)NC1 [EX85-A] | 0.01 to 0.1 | – |
| Cc1cc2nc(n1)NC/C=C\COCC1(C(F)(F)F)CCN(CC1)c1cc(NS(=O)(=O)CCO)ccc1C(=O)N2 [EX51] | 0.01 to 0.1 | – |
| CCS(=O)(=O)Nc1ccc2c(c1)N1CCC(C(F)(F)F)(CC1)COC[C@H](C)CNc1cccc(n1)NC2=O [EX88-B] | < 0.01 | – |
| CO[C@H]1CNc2nc(C)cc(n2)NC(=O)c2ccc(NS(=O)(=O)CCO)cc2N2CCC(C(F)(F)F)(CC2)COC1 [EX46-A] | 0.01 to 0.1 | – |
| Cc1cc2nc(n1)NC/C=C/COCC1(C(F)(F)F)CCP(=O)(CC1)c1cc(NS(=O)(=O)CCO)ccc1C(=O)N2 [EX52] | 1 to 10 | – |
| Cc1cc2nc(n1)NCC(C)COCC1(C#N)CCN(CC1)c1cc(NS(=O)(=O)CCO)ccc1C(=O)N2 (stereo not drawn) [EX42] | 0.01 to 0.1 | – |
| O=C1Nc2cccc(n2)N(C2CC2)CCCOCC2(C(F)(F)F)CCN(CC2)c2cc(NS(=O)(=O)CCO)ccc21 [EX71] | 0.01 to 0.1 | – |
| CC12CCN(CC1)c1cc(S(=O)(=O)NC(C)(C)C)ccc1C(=O)Nc1cccc(n1)OCCCOC2 [EX07] | 0.01 to 0.1 | – |
| CC12CCN(CC1)c1cc(S(=O)(=O)NC(C)(C)C)ccc1C(=O)Nc1ccc(=O)n(n1)CCCCOC2 [EX14] | 0.01 to 0.1 | – |
| C[C@@H]1CCOCC2(C(F)(F)F)CCN(CC2)c2cc(NS(=O)(=O)CCO)ccc2C(=O)Nc2cccc(n2)N1 [EX107-A] | 0.1 to 1 | – |
| C[C@@H]1CCCC2(C(F)(F)F)CCN(CC2)c2cc(NS(=O)(=O)CCO)ncc2C(=O)Nc2cccc(n2)NC1 [EX100-A] | 0.01 to 0.1 | – |
| [2H]C([2H])([2H])N1CCCCCC2(C(F)(F)F)CCN(CC2)c2cc(NS(=O)(=O)CCO)ccc2C(=O)Nc2cccc1n2 [EX60] | 0.01 to 0.1 | – |
